The target in data set [1] is T1, recombinant light chain of human enteropeptidase (Homo sapiens, UniProt P98073).
T1 construct: purchased ITSI‐Biosciences (Johnstown, PA)
In words: Determination of K m value of enteropeptidase for substrates. The format is biochemical. As to conditions: Michaelis–Menten fit of initial velocities. The text has this: Enteropeptidase is produced as a proenteropeptidase in enterocytes, the activation of which requires digestion to a light chain and a heavy chain. The light chain contains the catalytic active site, whereas the disulfide‐linked heavy chain provides the anchor to the brush border membrane. Thus, we used recombinant light chain of human enteropeptidase to discover its inhibitors. To identify small‐molecule enteropeptidase inhibitors, we designed two specific dual‐labeled substrates and developed enzyme assay systems. In the assay, the energy of the donor of an uncleaved substrate is transferred to the proximal acceptor at the opposite side of the substrate. When protease cleaves the substrate, the pair separates and the donor no longer transfers its emission to the acceptor, which leads to an increase in the fluorescence intensity observed from the donor.15 Enteropeptidase activity was measured with our designed substrates, Cy5‐labeled (Figure 1C) and 5FAM‐labeled substrates (Figure 1E), and commercially available substrate, H‐Gly‐Asp‐Asp‐Asp‐Asp‐Lys‐βNA (GDDDDK‐βNA), naphthylamine (Figure 1A). In our assay system, the fluorescence signal from the enzyme reaction increased in a time‐dependent manner. […]

The target in another data set is factor Xa (Homo sapiens, UniProt P00742). Nature of the data set: Serine protease selectivity: factor Xa. In kind it is biochemical. As to conditions: at 10 μmol/L; read-out: inhibitory activity against factor Xa.
Chain of factor Xa (P00742 235-488 limits assumed): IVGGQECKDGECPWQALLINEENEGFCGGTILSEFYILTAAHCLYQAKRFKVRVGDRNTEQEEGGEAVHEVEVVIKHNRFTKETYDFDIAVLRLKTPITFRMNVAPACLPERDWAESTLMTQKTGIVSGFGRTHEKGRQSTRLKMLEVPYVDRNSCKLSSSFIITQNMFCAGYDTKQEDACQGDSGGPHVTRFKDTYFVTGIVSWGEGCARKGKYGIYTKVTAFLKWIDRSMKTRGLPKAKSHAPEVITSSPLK
Chain of factor Xa (P00742 41-179 partner limits assumed): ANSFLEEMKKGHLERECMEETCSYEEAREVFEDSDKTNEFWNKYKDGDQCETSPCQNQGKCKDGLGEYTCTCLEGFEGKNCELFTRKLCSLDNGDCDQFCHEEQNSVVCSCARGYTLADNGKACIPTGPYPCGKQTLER
Another data set deals with plasma kallikrein (Homo sapiens, UniProt P03952). In words: Serine protease selectivity: plasma kallikrein (Panlabs Enzymatic Assay Services, Eurofins). The format is biochemical.
Chain of plasma kallikrein (P03952 391-638 limits assumed, species assumed): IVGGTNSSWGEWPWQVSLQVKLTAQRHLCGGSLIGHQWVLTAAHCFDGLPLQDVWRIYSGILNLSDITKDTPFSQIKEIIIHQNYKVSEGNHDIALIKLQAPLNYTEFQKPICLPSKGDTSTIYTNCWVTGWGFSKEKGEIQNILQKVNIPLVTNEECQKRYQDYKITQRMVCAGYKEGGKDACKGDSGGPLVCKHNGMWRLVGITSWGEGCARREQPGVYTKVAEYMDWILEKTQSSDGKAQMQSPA
Chain of plasma kallikrein (P03952 20-390 partner limits assumed, species assumed): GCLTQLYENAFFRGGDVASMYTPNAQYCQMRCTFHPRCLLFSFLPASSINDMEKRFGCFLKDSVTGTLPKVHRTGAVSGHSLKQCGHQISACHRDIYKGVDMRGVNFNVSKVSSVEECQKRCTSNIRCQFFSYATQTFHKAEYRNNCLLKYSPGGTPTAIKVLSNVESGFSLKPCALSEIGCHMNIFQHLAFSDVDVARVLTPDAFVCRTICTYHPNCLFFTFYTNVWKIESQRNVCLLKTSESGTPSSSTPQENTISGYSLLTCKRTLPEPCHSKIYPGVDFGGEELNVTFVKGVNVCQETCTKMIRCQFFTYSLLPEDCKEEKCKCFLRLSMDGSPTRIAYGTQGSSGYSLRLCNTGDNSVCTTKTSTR
Another data set concerns chymotrypsin. In words: Serine protease selectivity: chymotrypsin. The format is biochemical. As to conditions: at 10 μmol/L.
The target of data set [2] is T2, human recombinant enteropeptidase (Homo sapiens, UniProt P98073).
T2 construct: purchased ITSI‐Biosciences (Johnstown, PA)
T2 sequence (P98073 785-1019 limits assumed): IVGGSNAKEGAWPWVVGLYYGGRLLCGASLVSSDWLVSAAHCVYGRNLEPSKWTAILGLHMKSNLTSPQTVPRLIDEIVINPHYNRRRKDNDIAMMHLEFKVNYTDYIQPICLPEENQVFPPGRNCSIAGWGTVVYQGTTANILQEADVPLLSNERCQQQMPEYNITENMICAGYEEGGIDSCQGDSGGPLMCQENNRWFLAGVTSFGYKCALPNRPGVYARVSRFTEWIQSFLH
In words: Kinetic analysis of enteropeptidase inhibition (progress curves, k obs). In kind it is biochemical. As to conditions: for k inact/K I: 5FAM‐labeled substrate 0.7 μmol/L, corrected for [S]/Km. On the procedure:
For kinetic analysis, compounds were dissolved in DMSO and then diluted in the enteropeptidase assay buffer. Five microliters of compound solution was added to a 384‐well black plate followed by 5 μL of substrate solution [2.1 μmol/L 5FAM‐Abu‐Gly‐Asp‐Asp‐Asp‐Lys‐Ile‐Val‐Gly‐Gly‐Lys (CPQ2)‐Lys‐Lys‐NH2] and 5 μL of 24 mU/mL human recombinant enteropeptidase solution and mixed. The final concentration of substrate was 0.7 μmol/L, which is almost the same as the K m value. The fluorescence was measured every minute at an excitation wavelength of 485 nm and an emission wavelength of 520 nm using an EnVision multilabel plate reader. The progress curves were fitted to the following equation to determine the values for k obs, the apparent rate constant from initial rate v 0 to steady state rate v s:(1) F=vst+(v0-vs)(1-e^-kobst)/kobs+F0, where t is the time, F is the fluorescence, and F 0 is the fluorescence at time t = 0.
The k inact/K I,app value was determined as the slope of the [I] vs k obs plot, and the corrected k inact/K I value was also estimated according to the following equation:(2) kinact/KI,app=kinact/KI/(1+[S]/Km), where [I] is the concentration of inhibitor, [S] is the concentration of substrate, and K m is the Michaelis–Menten constant.

In another data set the target is T3, factor XIIa (Homo sapiens, UniProt P00748).
T3 sequence (P00748 373-615 limits assumed): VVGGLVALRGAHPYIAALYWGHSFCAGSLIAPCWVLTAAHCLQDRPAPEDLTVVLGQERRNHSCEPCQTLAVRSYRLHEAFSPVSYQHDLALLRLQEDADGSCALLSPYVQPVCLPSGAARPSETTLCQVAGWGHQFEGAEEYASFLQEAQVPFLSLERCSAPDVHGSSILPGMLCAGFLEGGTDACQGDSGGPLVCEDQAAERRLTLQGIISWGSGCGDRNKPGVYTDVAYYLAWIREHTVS
Nature of the data set: Serine protease selectivity: factor XIIa. The note with it: at 10 μmol/L; read-out: inhibitory activity against factor XIIa. The format is biochemical.

Another data set has as its target thrombin (Homo sapiens, UniProt P00734). Nature of the data set: Serine protease selectivity: thrombin. The note with it: at 10 μmol/L; read-out: inhibitory activity against thrombin. The format is biochemical.
In data set [3] the target is T2, human recombinant enteropeptidase. In words: Dissociation assay (rapid dilution). In kind it is biochemical. On the procedure: For the dissociation assay, compounds were dissolved in DMSO and then diluted in the enteropeptidase assay buffer. Ten microliters of compound solution was added to a 96‐well plate, and then 10 μL of 100 mU/mL human recombinant enteropeptidase solution was added to the plate and incubated at room temperature for 120 minutes. The concentration of the compound was equal to 10‐fold of the IC50 value upon incubation for 120 minutes. After this incubation, 2 μL of an compound‐enzyme mixture was transferred to a 96‐well black plate, and then 200 μL of substrate solution [3 μmol/L 5FAM‐Abu‐Gly‐Asp‐Asp‐Asp‐Lys‐Ile‐Val‐Gly‐Gly‐Lys(CPQ2)‐Lys‐Lys‐NH2] was added to the well. By its rapid dilution, the concentration of the inhibitor dropped from 10‐fold above the IC50 to 10‐fold below it. The fluorescence was measured every […] at an excitation wavelength of 485 nm and an emission wavelength of 520 nm using an EnVision multilabel plate reader. The progress curves were fitted to the following equations to determine the values for k off and dissociation half‐life, t 1/2.(3) F=vst+((v0-vs)(1-e^-kofft))/koff+F0 (4) t1/2=ln(2)/koff

The next data set addresses plasmin (Homo sapiens, UniProt P00747). Nature of the data set: Serine protease selectivity: plasmin (Panlabs Enzymatic Assay Services, Eurofins). In kind it is biochemical.
Another data set deals with DPP‐4 (Homo sapiens, UniProt P27487). Nature of the data set: Serine protease selectivity: DPP‐4. In kind it is biochemical. The note with it: at 10 μmol/L; read-out: inhibitory activity against DPP‐4.
Chain of DPP‐4 (P27487 whole entry, species assumed): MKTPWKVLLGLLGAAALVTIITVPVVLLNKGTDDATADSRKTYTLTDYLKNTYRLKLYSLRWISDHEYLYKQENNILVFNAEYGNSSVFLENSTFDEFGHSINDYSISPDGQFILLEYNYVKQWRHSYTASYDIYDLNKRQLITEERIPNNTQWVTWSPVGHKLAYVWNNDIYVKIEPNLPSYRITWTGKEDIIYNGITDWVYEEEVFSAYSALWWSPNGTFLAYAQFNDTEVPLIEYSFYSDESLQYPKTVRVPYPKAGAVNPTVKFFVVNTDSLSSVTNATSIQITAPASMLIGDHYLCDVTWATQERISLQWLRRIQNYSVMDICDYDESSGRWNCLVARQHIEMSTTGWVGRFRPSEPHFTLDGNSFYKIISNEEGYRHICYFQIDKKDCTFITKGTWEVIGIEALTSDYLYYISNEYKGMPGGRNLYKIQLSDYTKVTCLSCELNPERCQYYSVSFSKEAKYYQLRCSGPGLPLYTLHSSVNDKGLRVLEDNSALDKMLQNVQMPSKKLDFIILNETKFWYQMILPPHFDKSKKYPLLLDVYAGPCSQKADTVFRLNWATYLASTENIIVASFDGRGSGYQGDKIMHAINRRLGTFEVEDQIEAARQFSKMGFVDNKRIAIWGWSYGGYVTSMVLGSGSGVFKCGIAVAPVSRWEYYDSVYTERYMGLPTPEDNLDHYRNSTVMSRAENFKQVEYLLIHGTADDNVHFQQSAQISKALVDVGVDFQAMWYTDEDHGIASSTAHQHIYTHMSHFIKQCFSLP
Data set [4] is described as follows: Pharmacokinetic study in rats. In kind it is in vivo, Sprague‐Dawley rats. The note with it: for AUC(0-t): read-out: AUC0–24 h. As to the method:
Male Sprague‐Dawley rats were obtained from Charles River Laboratories Japan, Inc. (Yokohama, Japan). A pharmacokinetic study was conducted when the animals were 8 weeks old. For oral administration, SCO‐792 was suspended in a 0.5% (w/v) methylcellulose solution. For intravenous administration, SCO‐792 was dissolved in DMSO and added with saline to prepare a dosing formulation at a concentration of 0.2 mg/mL (DMSO:saline = 2:8 (v/v)). The oral dosing formulations were mixed well and given to fed‐male rats at single doses of 10 mg/5 ml/kg using polypropylene syringes with gavage needles. The intravenous dosing formulation was injected into the femoral vein of fed‐male rats at a dose of 0.2 mg/1 ml/kg using polypropylene syringes with needles under anesthesia with isoflurane. The blood was collected at the indicated time points, and the plasma concentrations of SCO‐792 were determined by high‐performance liquid chromatography/tandem mass spectrometry.

Data set [5] concerns plasma branched‐chain amino acids (BCAA). In words: Oral protein challenge in rats (plasma BCAA). In kind it is in vivo, Sprague‐Dawley rats. The note with it: 10, 30 mg/kg oral, ≤4 hour prior to whey protein load 2.5 g/kg. On the procedure:
Male Sprague‐Dawley rats were obtained from CLEA Japan Inc. (Tokyo, Japan). Eight‐week‐old rats were randomized into three groups on the basis of body weight and body weight change before the experiment (n = 4). SCO‐792 (10, 30 mg/kg in a 0.5% (w/v) methylcellulose solution) was then orally administered 1, 2, 4, and 6 hours before an oral whey protein load (2.5 g/kg; SAVAS whey protein 100, Meiji, Japan), and blood samples were collected at indicated time points for the measurement of plasma branched‐chain amino acids (BCAA).
Plasma BCAA concentration was measured using an enzymatic spectrophotometric assay as described by Beckett.14 Briefly, bacterial leucine dehydrogenase was used to catalyze the oxidation of BCAA, and the production of NADH was measured using a spectrophotometer (excitation 355 nm, emission 460 nm). L‐leucine was used to generate a standard curve to determine sample concentrations.

Data set [6] has as its target T2, human recombinant enteropeptidase. Nature of the data set: Enteropeptidase enzyme assay (human recombinant enteropeptidase, FRET substrate). The format is biochemical. The note with it: 120‐minute incubation; read-out: IC50 (95% confidence intervals), human enteropeptidase activity. As to the method: In the HTS, enzyme and substrate were dissolved in the enteropeptidase assay buffer [50 mmol/L Tricine, pH 8.0, 0.01% (w/v) Tween20, and 10 mmol/L CaCl2]. Twenty‐five nanoliters of compound solution dissolved in DMSO was added to a 1536‐well black plate, and then 2 μL of 90 mU/mL human recombinant enteropeptidase solution was added to the plate and incubated at room temperature for 60 minutes. Next, 2 μL of substrate solution [2.1 μmol/L QSY21‐Gly‐Asp‐Asp‐Asp‐Lys‐Ile‐Val‐Gly‐Gly‐Lys (Cy5)] was added to the plate and incubated at room temperature for 30 minutes. After incubation, 2 μL of 30 mmol/L H2SO4 solution was added to stop the reaction. The fluorescence was measured at an excitation wavelength of 620 nm and an emission wavelength of 685 nm by multilabel plate reader EnVision (PerkinElmer, Waltham, MA).
For kinetic analysis, compounds were dissolved in DMSO and then diluted in the enteropeptidase assay buffer. […] The fluorescence was measured every minute at an excitation wavelength of 485 nm and an emission wavelength of 520 nm using an EnVision multilabel plate reader. The progress curves were fitted to the following equation to determine the values for k obs, the apparent rate constant from initial rate v 0 to steady state rate v s:(1) F=vst+(v0-vs)(1-e^-kobst)/kobs+F0, where t is the time, F is the fluorescence, and F 0 is the fluorescence at time t = 0. […]

A further data set in a line: Chemical stability. The format is physicochemical.
[7] abbreviates: 120 min preincubation, rapid dilution.
Where [8] appears, read: male, Sprague-Dawley, rat, in vivo, intravenous, 0.2 mg/kg, mean ± SD (n = 3).
[9] abbreviates: male, Sprague-Dawley, rat, in vivo, oral, 10 mg/kg, mean ± SD (n = 3).

Read-outs that look alike come from different tables or passages of the source. *: point of attachment. βNA = c1ccc2cc(N*)ccc2c1

T1 sequence (P98073 785-1019 limits assumed): as the sequence (P98073 785-1019 limits assumed) above
Chain of plasmin (P00747 581-810 limits assumed, species assumed): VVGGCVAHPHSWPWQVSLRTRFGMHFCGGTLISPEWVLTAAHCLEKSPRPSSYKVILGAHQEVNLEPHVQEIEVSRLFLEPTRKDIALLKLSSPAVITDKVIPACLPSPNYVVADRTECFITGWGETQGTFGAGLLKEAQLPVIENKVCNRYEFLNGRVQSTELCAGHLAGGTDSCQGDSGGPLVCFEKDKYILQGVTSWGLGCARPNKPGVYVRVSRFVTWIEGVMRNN
Chain of plasmin (P00747 97-580 partner limits assumed, species assumed): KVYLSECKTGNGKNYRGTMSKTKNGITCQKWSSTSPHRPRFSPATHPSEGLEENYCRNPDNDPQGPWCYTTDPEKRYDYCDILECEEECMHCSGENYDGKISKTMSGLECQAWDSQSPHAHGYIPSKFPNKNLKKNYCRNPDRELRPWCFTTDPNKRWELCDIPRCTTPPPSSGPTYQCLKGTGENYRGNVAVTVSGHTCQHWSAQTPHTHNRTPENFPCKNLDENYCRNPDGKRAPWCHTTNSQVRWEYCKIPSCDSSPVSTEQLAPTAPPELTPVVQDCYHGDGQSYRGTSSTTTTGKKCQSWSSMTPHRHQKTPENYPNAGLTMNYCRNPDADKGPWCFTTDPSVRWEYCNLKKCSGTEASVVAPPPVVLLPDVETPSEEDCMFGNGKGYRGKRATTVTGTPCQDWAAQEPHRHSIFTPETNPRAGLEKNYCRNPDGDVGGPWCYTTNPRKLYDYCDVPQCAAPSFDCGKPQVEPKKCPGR

“5FAM‐Abu‐Gly‐Asp‐Asp‐Asp‐Lys‐Ile‐Val‐Gly‐Gly‐Lys (CPQ2)‐Lys‐Lys‐NH2 [5FAM‐labeled substrate]”: in data set [1], the “K m value for enteropeptidase” value amounted to 0.7 µM.

On to H-GDDDDK-βNA [GDDDDK‐βNA], for which the “K m value for enteropeptidase” value in data set [1] turned out to be 230 µM.

Consider `N=C(N)Nc1ccc(C(=O)Oc2ccc3c(c2)OC[C@H]3CC(=O)N[C@@H](CC(=O)O)C(=O)O)cc1.O` [SCO‐792, N‐({(3S)‐6‐[(4‐carbamimidamidobenzoyl)oxy]‐2,3‐dihydro‐1‐benzofuran‐3‐yl}acetyl)‐L‐aspartic acid hydrate], for which the inhibition at 10 µM at factor Xa, at factor XIIa, on thrombin and at DPP‐4 was less than 50% throughout. In addition, the IC50 was determined as 16 nM on plasma kallikrein, 460 nM on plasmin and 5.4 nM in data set [6]. In the data set on chymotrypsin, the “inhibitory activity against chymotrypsin” value is less than 50%. In [2], the “time dependence of enteropeptidase inhibition” value is “time‐dependent”. Further, the “k inact/K I” value in data set [2] is recorded as 82 000 /mol/L s. Also, in data set [3], the reversibility of inhibition entry was “reversible”. In addition, the “dissociation t 1/2” value in data set [3] (setting [7]) was 14 h. Further, in data set [3] (setting [7]), the koff is 1.31e-05 s⁻¹. The compound further showed a BA in data set [4] (from AUC0‐24 h oral 10 mg/kg vs intravenous 0.2 mg/kg) of 0.4%. For the same compound, the AUC(0-inf) in [4] (setting [8]) was 304 ± 30 ng·h/mL; in data set [4] (setting [9]), 49.8 ± 5.4 ng·h/mL. Besides, the figures for the half-life in data set [4] (setting [8]) and in data set [4] (setting [9]) were 5.2 ± 1.8 h and 4.4 ± 0.5 h, respectively. Further, the AUC(0-t) stood at 303 ± 23 ng·h/mL in [4] (setting [8]) and 54.1 ± 7.5 ng·h/mL in data set [4] (setting [9]). Further, in data set [4] (male, Sprague-Dawley, rat, in vivo, intravenous, 0.2 mg/kg, mean ± SD (n = 3), read-out: CLp (converted)), the clearance was 11.1 mL/min/kg. The Vd in data set [4] (male, Sprague-Dawley, rat, in vivo, intravenous, 0.2 mg/kg, mean ± SD (n = 3), read-out: Vss) was 1.29 ± 0.299 L/kg. Moreover, the Cmax at 5 min in data set [4] (male, Sprague-Dawley, rat, in vivo, intravenous, 0.2 mg/kg, observed at 5 minutes, mean ± SD (n = 3), read-out: C max (C5 min)) was determined as 564 ± 58 ng/mL. The same compound yielded a Cmax in data set [4] (setting [9]) of 6.6 ± 1.36 ng/mL. In data set [4] (setting [9]), the Tmax stood at 1.7 ± 0.6 h. The “effect on plasma BCAA elevations induced by oral protein dosing” value in data set [5] was “effectively and dose‐dependently inhibited”.

For the compound `Cc1cc(OC(=O)c2ccc(NC(=N)N)cc2)no1` [T‐0046812], the “time dependence of enteropeptidase inhibition” value in data set [2] was “time‐dependent”. In addition, the “k inact/K I” value in data set [2] stood at 5300 mol⁻¹ L⁻¹ s⁻¹. In addition, the chemical stability result in the data set “Chemical stability” (pH 1.2) and in “Chemical stability” (pH 6.8) was “unstable” throughout. The IC50 in data set [6] was found to be 140 nM.
